Test results reported in patent publication US9181255B2, “Fused heteroaromatic pyrrolidinones as SYK inhibitors” (Takeda Pharmaceutical Company Limited, priority 2009, dated 2015).

Each compound was assayed against SYK (Homo sapiens, UniProt P43405) (assay: SYK inhibition assay: SYK-mediated phosphorylation of FAM-labeled substrate (Caliper microfluidic)). Settings: SYK kinase domain (residues 356-635); 5FAM-KKKKEEIYFFFG-NH2 substrate; ATP; RT 60 min; pIC50 = -log(IC50), IC50 molar.
Assay type: biochemical

| SMILES | SYK Inhibition (pIC50) |
| --- | --- |
| N[C@H]1COCC[C@H]1Nc1nc(-c2cnn(C(F)F)c2)c2c(c1F)CNC2=O [Example 93, 6-((3R,4R)-3-Aminotetrahydro-2H-pyran-4-ylamino)-4-(1-(difluoromethyl)-1H-pyrazol-4-yl)-7-fluoro-1H-pyrrolo[3,4-c]pyridin-3(2H)-one] | 8.0 |

Same assay, conditions: read-out: SYK Inhibition (pIC50) (converted)

| SMILES | IC50 [nM] |
| --- | --- |
| N[C@H]1COCC[C@H]1Nc1nc(-c2cnn3ccccc23)c2c(c1F)CNC2=O [Example 92, 6-((3R,4R)-3-Aminotetrahydro-2H-pyran-4-ylamino)-7-fluoro-4-(pyrazolo[1,5-a]pyridin-3-yl)-1H-pyrrolo[3,4-c]pyridin-3(2H)-one] | 12.6 |
| N[C@H]1COCC[C@H]1Nc1nc(-c2coc3ccccc23)c2c(c1F)CNC2=O [Example 94, 6-((3R,4R)-3-Aminotetrahydro-2H-pyran-4-ylamino)-4-(benzofuran-3-yl)-7-fluoro-1H-pyrrolo[3,4-c]pyridin-3(2H)-one] | 3.16 |
| Cn1cc(-c2nc(N3CC[C@H](N)C3)c(F)c3c2C(=O)NC3)cn1 [Example 95, (S)-6-(3-Aminopyrrolidin-1-yl)-7-fluoro-4-(1-methyl-1H-pyrazol-4-yl)-1H-pyrrolo[3,4-c]pyridin-3(2H)-one] | 3980 |
| Cn1cc(-c2nc(N3CCC[C@H](N)C3)c(F)c3c2C(=O)NC3)cn1 [Example 96, (S)-6-(3-Aminopiperidin-1-yl)-7-fluoro-4-(1-methyl-1H-pyrazol-4-yl)-1H-pyrrolo[3,4-c]pyridin-3(2H)-one] | 200 |
| CC(C)n1cc(-c2nc(N[C@@H]3CCCC[C@@H]3N)c(F)c3c2C(=O)NC3)cn1 [Example 97, 6-((1R,2S)-2-Aminocyclohexylamino)-7-fluoro-4-(1-isopropyl-1H-pyrazol-4-yl)-1H-pyrrolo[3,4-c]pyridin-3(2H)-one] | 158 |
| Cn1cc(-c2nc(-c3cnn(C)c3)c3c(c2F)CNC3=O)cn1 [Example 98, 7-Fluoro-4,6-bis(1-methyl-1H-pyrazol-4-yl)-1H-pyrrolo[3,4-c]pyridin-3(2H)one] | 2000 |
| Cn1cc(-c2nc(N[C@@H]3CCCC[C@@H]3N)c(Br)c3c2C(=O)NC3)cn1 [Example 99, 6-((1R,2S)-2-Aminocyclohexylamino)-7-bromo-4-(1-methyl-1H-pyrazol-4-yl)-1H-pyrrolo[3,4-c]pyridin-3(2H)-one] | 3.16 |
| N[C@H]1CCCC[C@H]1Nc1nc2c(c(-c3cnn(-c4ccc(F)cc4)c3)n1)C(=O)NC2 [Example 100, 2-((1R,2S)-2-Aminocyclohexylamino)-4-(1-(4-fluorophenyl)-1H-pyrazol-4-yl)-6,7-dihydro-5H-pyrrolo[3,4-d]pyrimidin-5-one] | 158 |
| COC[C@H](N)CNc1nc(-c2cnn(C)c2)c2c(c1F)CNC2=O [Example 101, (R)-6-(2-Amino-3-methoxypropylamino)-7-fluoro-4-(1-methyl-1H-pyrazol-4-yl)-1H-pyrrolo[3,4-c]pyridin-3(2H)-one] | 63.1 |
| N[C@H]1COCC[C@H]1Nc1nc(-c2ccsc2)c2c(c1F)CNC2=O [Example 103, 6-((3R,4R)-3-Aminotetrahydro-2H-pyran-4-ylamino)-7-fluoro-4-(thiophen-3-yl)-1H-pyrrolo[3,4-c]pyridin-3(2H)-one] | 126 |
| Cc1csc(-c2nc(N[C@@H]3CCOC[C@@H]3N)c(F)c3c2C(=O)NC3)c1 [Example 104, 6-((3R,4R)-3-Aminotetrahydro-2H-pyran-4-ylamino)-7-fluoro-4-(4-methylthiophen-2-yl)-1H-pyrrolo[3,4-c]pyridin-3(2H)-one] | 2 |
| Cc1csc(-c2nc(N[C@@H]3CCCC[C@@H]3N)c(F)c3c2C(=O)NC3)c1 [Example 105, 6-((1R,2S)-2-Aminocyclohexylamino)-7-fluoro-4-(4-methylthiophen-2-yl)-1H-pyrrolo[3,4-c]pyridin-3(2H)-one] | 1 |
| N[C@H]1CCCC[C@H]1Nc1nc(-c2ccsc2)c2c(c1F)CNC2=O [Example 106, 6-((1R,2S)-2-Aminocyclohexylamino)-7-fluoro-4-(thiophen-3-yl)-1H-pyrrolo[3,4-c]pyridin-3(2H)-one] | 2.51 |
| CNC(=O)[C@@H](CC(C)C)Nc1nc(-c2cnn(C)c2)c2c(c1F)CNC2=O [Example 107, (R)-2-(7-Fluoro-4-(1-methyl-1H-pyrazol-4-yl)-3-oxo-2,3-dihydro-1H-pyrrolo[3,4-c]pyridin-6-ylamino)-N,4-dimethylpentanamide] | 501 |
| Cc1ccc(-c2nc(N[C@@H]3CCCC[C@@H]3N)c(F)c3c2C(=O)NC3)s1 [Example 108, 6-((1R,2S)-2-Aminocyclohexylamino)-7-fluoro-4-(5-methylthiophen-2-yl)-1H-pyrrolo[3,4-c]pyridin-3(2H)-one] | 2.51 |
| Cc1csc(-c2nc(N[C@H](CC(C)C)C(N)=O)c(F)c3c2C(=O)NC3)c1 [Example 109, (R)-2-(7-Fluoro-4-(4-methylthiophen-2-yl)-3-oxo-2,3-dihydro-1H-pyrrolo[3,4-c]pyridin-6-ylamino)-4-methylpentanamide] | 3.16 |
| CC(C)C[C@@H](Nc1nc(-c2ccsc2)c2c(c1F)CNC2=O)C(N)=O [Example 110, (R)-2-(7-Fluoro-3-oxo-4-(thiophen-3-yl)-2,3-dihydro-1H-pyrrolo[3,4-c]pyridin-6-ylamino)-4-methylpentanamide] | 50.1 |

| SMILES | IC50 [nM] |
| --- | --- |
| Cc1ccc(-c2nc(N[C@H](CC(C)C)C(N)=O)c(F)c3c2C(=O)NC3)s1 [Example 111, (R)-2-(7-Fluoro-4-(5-methylthiophen-2-yl)-3-oxo-2,3-dihydro-1H-pyrrolo[3,4-c]pyridin-6-ylamino)-4-methylpentanamide] | 7.94 |
| Nc1ncc(-c2nc(N[C@@H]3CCCC[C@@H]3N)c(F)c3c2C(=O)NC3)s1 [Example 112, 6-((1R,2S)-2-Aminocyclohexylamino)-4-(2-aminothiazol-5-yl)-7-fluoro-1H-pyrrolo[3,4-c]pyridin-3(2H)-one] | 2 |
| CC(C)C[C@@H](Nc1nc(-c2ccco2)c2c(c1F)CNC2=O)C(N)=O [Example 113, (R)-2-(7-Fluoro-4-(furan-2-yl)-3-oxo-2,3-dihydro-1H-pyrrolo[3,4-c]pyridin-6-ylamino)-4-methylpentanamide] | 200 |
| CC(C)C[C@@H](Nc1nc(-c2ccoc2)c2c(c1F)CNC2=O)C(N)=O [Example 114, (R)-2-(7-Fluoro-4-(furan-3-yl)-3-oxo-2,3-dihydro-1H-pyrrolo[3,4-c]pyridin-6-ylamino)-4-methylpentanamide] | 251 |
| Cc1ccc(-c2nc(N[C@H](CC(C)C)C(N)=O)c(F)c3c2C(=O)NC3)o1 [Example 115, (R)-2-(7-Fluoro-4-(5-methylfuran-2-yl)-3-oxo-2,3-dihydro-1H-pyrrolo[3,4-c]pyridin-6-ylamino)-4-methylpentanamide] | 316 |
| CC(C)C[C@@H](Nc1nc(-c2ccc(C#N)s2)c2c(c1F)CNC2=O)C(N)=O [Example 116, (R)-2-(4-(5-Cyanothiophen-2-yl)-7-fluoro-3-oxo-2,3-dihydro-1H-pyrrolo[3,4-c]pyridin-6-ylamino)-4-methylpentanamide] | 7.94 |
| CC(C)C[C@@H](Nc1nc(-c2cc(C#N)cs2)c2c(c1F)CNC2=O)C(N)=O [Example 117, (R)-2-(4-(4-Cyanothiophen-2-yl)-7-fluoro-3-oxo-2,3-dihydro-1H-pyrrolo[3,4-c]pyridin-6-ylamino)-4-methylpentanamide] | 12.6 |
| CC(C)C[C@@H](Nc1nc(-c2cncs2)c2c(c1F)CNC2=O)C(N)=O [Example 118, (R)-2-(7-Fluoro-3-oxo-4-(thiazol-5-yl)-2,3-dihydro-1H-pyrrolo[3,4-c]pyridin-6-ylamino)-4-methylpentanamide] | 12.6 |
| CC(C)C[C@@H](Nc1nc(-c2ccns2)c2c(c1F)CNC2=O)C(N)=O [Example 119, (R)-2-(7-Fluoro-4-(isothiazol-5-yl)-3-oxo-2,3-dihydro-1H-pyrrolo[3,4-c]pyridin-6-ylamino)-4-methylpentanamide] | 15.8 |
| Cn1cc(-c2nc(N[C@@H]3CCCC[C@@H]3N)c(F)c3c2C(=O)NC3(C)C)cn1 [Example 120, 6-((1R,2S)-2-Aminocyclohexylamino)-7-fluoro-1,1-dimethyl-4-(1-methyl-1H-pyrazol-4-yl)-1H-pyrrolo[3,4-c]pyridin-3(2H)-one] | 251 |
| Cn1ccc(-c2nc(N[C@@H]3CCCC[C@@H]3N)c(F)c3c2C(=O)NC3)n1 [Example 121] | 3980 |
| Cc1ncc(-c2nc(N[C@@H]3CCCC[C@@H]3N)c(F)c3c2C(=O)NC3)s1 [Example 122, 6-((1R,2S)-2-Aminocyclohexylamino)-7-fluoro-4-(2-methylthiazol-5-yl)-1H-pyrrolo[3,4-c]pyridin-3(2H)-one] | 631 |
| Cc1ccc(-c2nc(N[C@@H]3CCOC[C@@H]3N)c(F)c3c2C(=O)NC3)s1 [Example 123, 6-((3R,4R)-3-Aminotetrahydro-2H-pyran-4-ylamino)-7-fluoro-4-(5-methylthiophen-2-yl)-1H-pyrrolo[3,4-c]pyridin-3(2H)-one] | 7.94 |
| CC1NC(=O)c2c(-c3cnn(C)c3)nc(N[C@@H]3CCCC[C@@H]3N)c(F)c21 (stereo partly drawn) [Example 124, 6-((1R,2S)-2-Aminocyclohexylamino)-7-fluoro-1-methyl-4-(1-methyl-1H-pyrazol-4-yl)-1H-pyrrolo[3,4-c]pyridin-3(2H)-one] | 25.1 |
| N[C@H]1COCC[C@H]1Nc1nc(-c2cnn(C(F)F)c2)c2c(c1F)CNC2=O [Example 125, 6-((3R,4R)-3-Aminotetrahydro-2H-pyran-4-ylamino)-4-(1-(difluoromethyl)-1H-pyrazol-4-yl)-7-fluoro-1H-pyrrolo[3,4-c]pyridin-3(2H)-one] | 10 |
| CC(C)C[C@@H](Nc1nc(-c2cccs2)c2c(c1F)CNC2=O)C(N)=O [Example 126, (R)-2-(7-Fluoro-3-oxo-4-(thiophen-2-yl)-2,3-dihydro-1H-pyrrolo[3,4-c]pyridin-6-ylamino)-4-methylpentanamide] | 7.94 |
| N[C@H]1COCC[C@H]1Nc1nc(-c2cccs2)c2c(c1F)CNC2=O [Example 127, 6-((3R,4R)-3-Aminotetrahydro-2H-pyran-4-ylamino)-7-fluoro-4-(thiophen-2-yl)-1H-pyrrolo[3,4-c]pyridin-3(2H)-one] | 6.31 |
